This is an account of results in article PMC8708382, “Heterocyclic Cathinones as Inhibitors of Kynurenine Aminotransferase II—Design, Synthesis, and Evaluation” (Pharmaceuticals, 2021).

Structures can show the parent of a compound that is named as a salt. Where two headings read alike, the source gives them in different places.

In series [1] the target is T1, hKAT-II (Homo sapiens, UniProt Q8N5Z0).
T1 construct: hexahistidine tag (N); made in house; host or cells: E. coli BL21(DE3)-RIL
Briefly: Coupled fluorescence in vitro inhibition assay of hKAT-II. It counts as biochemical. The following applies: 20 nM hKAT-II; for IC50: 30 min pre-incubation; for Inhibitory Activity [%I ± SEM] c = 1 µM: 30 min pre-incubation with enzyme, mean ± SEM. As to the method:
The inhibitory activity of amino ketones 11 and 12 was evaluated using a fluorimetric in vitro assay. The activity was determined as the percentage of inhibition (%I) at a concentration of 1 µmol/L and also as IC50 values (Table 1). The observed inhibitory activity confirmed the validity of the computational model and was suitable to conduct a synthesis-directed SAR study around the predicted heterocyclic α-amino ketone structure.
The nucleotide sequence encoding hKAT-II gene was constructed by Invitrogen, Thermo Fisher Scientific. The hKAT-II gene, optimized for heterologous expression in E. coli, was cloned into a pET15b vector using NdeI-XhoI. The hKAT-II protein, carrying an N-terminal hexahistidine tag, was produced in E.coli BL21(DE3)-RIL cells for 4 h at 37 °C. The bacterial cells were then harvested and disintegrated using One-Shot. […] (25.000× g, 30 min) centrifugation cleared cell lysate containing hKAT-II was loaded on the top of a HisTrap Fast Flow column (Cytiva) equilibrated in loading buffer (40 mM Tris, pH 8; 1000 mM NaCl, 40 µM PLP, 5 mM MgCl2, 20 mM imidazole). Following elution of the bound proteins by the loading buffer containing 600 mM imidazole, purified hKAT-II was dialyzed into a storage buffer (20 mM Hepes pH 7.5; 50 mM NaCl, 70 µM PLP, 10% glycerol), concentrated to 1.0–1.5 mg/mL, aliquoted, and stored at −80 °C.
hKAT-II activity was measured using a fluorescence assay utilizing L-α-aminoadipic acid (AAD) and α-ketoglutarate as the substrates as previously described. The assay medium (100 µL) consisted of 0.75 µM of hKAT-II, 0.3 mM of AAD, 50 µM α-ketoglutarate, 3 mM NAD^+, 88 µg/mL of glutamic dehydrogenase, and 5 µM pyridoxal phosphate (PLP) in a 0.1 M phosphate buffer pH 7.5. The activity of the enzyme was assessed on a Spark multiple mode reader (Tecan Group Ltd., Männedorf, Switzerland) with an excitation wavelength of 340 nm and emission wavelength of 390 nm at 37 °C. The plate was shaken for 20 s before reading. The kinetic interval was set at 30 s between each reading, and data were collected for 30 min. The activity of the enzyme was assayed in pentaplicate in each measurement (n = 3). Kinetic data were then collected over a period of 30 min, and the linear part of the initial velocity was used to calculate the enzyme activity expressed as the slope of the linearized curve via the linear regression function (Excel, Microsoft, USA).
The inhibitory activity of the tested compounds was determined via 30 min pre-incubation with the enzyme at various concentrations of the inhibitor at room temperature in a 0.1 M phosphate buffer pH 7.5 with 5 µM PLP. The enzyme reaction was initiated by the addition of a substrate and cofactors. The final mixture contained 20 nM of hKAT-II, 0.3 mM of AAD, 50 µM α-ketoglutarate, 3 mM NAD^+, and 88 µg/mL of glutamic dehydrogenase. Kinetic data were collected over a period of 30 min, and the slope of the linearized curve was calculated as above. The inhibitory activity in %I at a given concentration was calculated for novel compounds using the following equation:(1) Inhibition [%I]=(V0− Vi/V0)×100, where V0 and Vi are the activity of the enzyme in the absence and presence of the inhibitor, respectively. All the data were obtained in pentaplicate for each measurement (n = 3). Alternatively, the IC50 values for selected novel compounds were assessed. GraphPad Prism 8 software (San Diego, USA) was used for the IC50 value calculation using non-linear regression (four parameters). […]

The mark [2] stands for this setting: non-linear regression (four parameters), read-out: IC50 ± SEM.

T1 sequence (Q8N5Z0 30-425): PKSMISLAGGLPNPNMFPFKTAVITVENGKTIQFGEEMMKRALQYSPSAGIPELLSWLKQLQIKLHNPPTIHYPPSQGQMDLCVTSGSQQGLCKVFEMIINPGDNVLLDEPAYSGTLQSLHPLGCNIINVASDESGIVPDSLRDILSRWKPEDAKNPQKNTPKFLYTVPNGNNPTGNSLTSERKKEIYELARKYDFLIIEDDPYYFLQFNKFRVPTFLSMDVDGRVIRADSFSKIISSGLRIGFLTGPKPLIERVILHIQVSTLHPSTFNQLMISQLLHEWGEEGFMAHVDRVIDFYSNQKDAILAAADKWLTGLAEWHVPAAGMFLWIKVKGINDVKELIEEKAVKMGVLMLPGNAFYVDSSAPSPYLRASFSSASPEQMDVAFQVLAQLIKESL

For `C[C@H](N)C(=O)c1cn(-c2cccnc2)nn1` (as salt: hydrochloride) [Compound 26l], the melting point (as a rule, the temperature, or range, at which the solid turns liquid) is 140 to 143 °C (dec.). For `N[C@H]1Cc2ccccc2N(O)C1=O` [Compound 3, PF-04859989, reference compound], in series [1] (assay validation, read-out: IC50 of the reference inhibitor), the IC50 – broadly, the point on the concentration scale where inhibition reaches its midpoint – turned out to be 28 ± 5 nM. As for `C[C@H](N)C(=O)c1ncc(-c2ccccc2)s1` [Compound 11, 2-alaninoyl-5-phenylthiazole], the melting point is > 168 °C (dec.). In addition, in series [1] (setting [2]), the 50% inhibitory concentration (IC50) stood at 1620 ± 1430 nM. Besides, the “Inhibitory Activity [%I ± SEM] c = 1 µM” value in series [1] was determined as 41.41 ± 4.15 %I. `C[C@H](N)C(=O)c1cn(-c2ccccc2)nn1` [Compound 12, 4-alaninoyl-1-phenyl-1H-1,2,3-triazole]: the melting point was > 178 °C (dec.). In series [1] (setting [2]), the IC50 was 3210 ± 260 nM. The “Inhibitory Activity [%I ± SEM] c = 1 µM” value in series [1] is 43.19 ± 2.30 %I. Take `CC(C)[C@H](N)C(=O)c1cn(-c2ccccc2)nn1.Cl` [Compound 21a]: the melting point is > 182 °C (dec.). Moreover, the “Inhibitory Activity [%I ± SEM] c = 1 µM” value in series [1] came to 10.32 ± 4.81 %I. For `N[C@@H](Cc1ccccc1)C(=O)c1cn(-c2ccccc2)nn1` [Compound 21b] the same measures were > 174 °C (dec.) and 14.52 ± 3.71 %I.

As to `Cl.N[C@@H](CCc1ccccc1)C(=O)c1cn(-c2ccccc2)nn1` [Compound 21c], the melting point is > 175 °C (dec.). Further, the “Inhibitory Activity [%I ± SEM] c = 1 µM” value in series [1] came out at 16.50 ± 3.71 %I. On the same counts, the results for `CCCC[C@H](N)C(=O)c1cn(-c2ccccc2)nn1.Cl` [Compound 21d] are > 173 °C (dec.) and 13.46 ± 5.46 %I. On to `CC[C@H](N)C(=O)c1cn(-c2ccccc2)nn1.Cl` [Compound 21e], for which, in series [1], the “Inhibitory Activity [%I ± SEM] c = 1 µM” value is on record as 21.82 ± 4.80 %I. Regarding `N[C@H](C(=O)c1cn(-c2ccccc2)nn1)C1CC1` [Compound 21f], the melting point was > 183 °C (dec.). Besides, in series [1], the “Inhibitory Activity [%I ± SEM] c = 1 µM” value is 7.44 ± 3.75 %I. For the molecule `CC(C)[C@H](N)C(=O)c1ncc(-c2ccccc2)s1` [Compound 25a], the melting point was > 170 °C (dec.). In addition, the “Inhibitory Activity [%I ± SEM] c = 1 µM” value in series [1] was determined as 31.24 ± 3.64 %I. On the same counts, the results for `N[C@@H](Cc1ccccc1)C(=O)c1ncc(-c2ccccc2)s1` [Compound 25b] are > 175 °C (dec.) and 7.22 ± 2.70 %I. Regarding `N[C@@H](CCc1ccccc1)C(=O)c1ncc(-c2ccccc2)s1` [Compound 25c], the melting point is > 135 °C (dec.). Further, the “Inhibitory Activity [%I ± SEM] c = 1 µM” value in series [1] stood at 31.32 ± 0.88 %I. For `CCCC[C@H](N)C(=O)c1ncc(-c2ccccc2)s1` [Compound 25d] the same measures were 124 to 127 °C and 37.22 ± 2.53 %I. For `CC[C@H](N)C(=O)c1ncc(-c2ccccc2)s1` [Compound 25e] the same measures were > 180 °C (dec.) and 44.18 ± 3.42 %I.

With `N[C@H](C(=O)c1ncc(-c2ccccc2)s1)C1CC1` [Compound 25f], the melting point was > 165 °C (dec.). For the same molecule, the “Inhibitory Activity [%I ± SEM] c = 1 µM” value in series [1] stood at 6.12 ± 2.66 %I. In the case of `COc1ccc(-n2cc(C(=O)[C@H](C)N)nn2)cc1` [Compound 26a], the melting point is > 180 °C (dec.). For the same molecule, in series [1], the “Inhibitory Activity [%I ± SEM] c = 1 µM” value is 38.50 ± 2.21 %I.

As to `COc1cccc(-n2cc(C(=O)[C@H](C)N)nn2)c1` [Compound 26b], the melting point is > 171 °C (dec.). Moreover, the “Inhibitory Activity [%I ± SEM] c = 1 µM” value in series [1] was 18.20 ± 2.27 %I.

Regarding `COc1ccccc1-n1cc(C(=O)[C@H](C)N)nn1` [Compound 26c], the melting point is > 168 °C (dec.). Besides, the “Inhibitory Activity [%I ± SEM] c = 1 µM” value in series [1] is on record as 23.41 ± 3.97 %I.

`C[C@H](N)C(=O)c1cn(-c2ccc(C(C)(C)C)cc2)nn1` [Compound 26d]: the melting point is > 181 °C (dec.). Also, the “Inhibitory Activity [%I ± SEM] c = 1 µM” value in series [1] amounted to 0.98 ± 1.98 %I. `Cc1ccc(-n2cc(C(=O)[C@H](C)N)nn2)cc1` [Compound 26e]: the melting point was > 184 °C (dec.). In series [1], the “Inhibitory Activity [%I ± SEM] c = 1 µM” value turned out to be 18.56 ± 2.33 %I. On to `Cc1ccc(-n2cc(C(=O)[C@H](C)N)nn2)cc1C` [Compound 26f], for which the melting point is > 170 °C (dec.). Moreover, the “Inhibitory Activity [%I ± SEM] c = 1 µM” value in series [1] is reported as 9.10 ± 2.07 %I. For `Cc1ccc(-n2cc(C(=O)[C@H](C)N)nn2)c(C)c1` [Compound 26g] the same measures were > 175 °C (dec.) and 41.60 ± 6.39 %I. As for `Cc1cccc(C)c1-n1cc(C(=O)[C@H](C)N)nn1` [Compound 26h], the melting point was > 176 °C (dec.). Also, in series [1], the “Inhibitory Activity [%I ± SEM] c = 1 µM” value is listed as 25.38 ± 2.22 %I. For `C[C@H](N)C(=O)c1cn(-c2cccc3ccccc23)nn1` [Compound 26i] the same measures were > 172 °C (dec.) and 4.32 ± 1.32 %I.

In the case of `C[C@H](N)C(=O)c1cn(-c2ccc3ccccc3c2)nn1` [Compound 26j], the melting point was > 182 °C (dec.). Moreover, the “Inhibitory Activity [%I ± SEM] c = 1 µM” value in series [1] stood at 27.81 ± 3.33 %I.

Regarding `C[C@H](N)C(=O)c1cn(-c2ccccn2)nn1.Cl` [Compound 26k], the melting point was > 198 °C (dec.). In addition, the “Inhibitory Activity [%I ± SEM] c = 1 µM” value in series [1] was found to be 20.73 ± 1.83 %I. On to `C[C@H](N)C(=O)c1cn(-c2cccnc2)nn1` [Compound 26l], for which the “Inhibitory Activity [%I ± SEM] c = 1 µM” value in series [1] is 23.63 ± 2.30 %I. `C[C@H](N)C(=O)c1cn(-c2ccncc2)nn1.Cl.Cl` [Compound 26m]: the melting point was > 183 °C (dec.). Also, the “Inhibitory Activity [%I ± SEM] c = 1 µM” value in series [1] stood at 33.48 ± 4.88 %I. Consider `C[C@H](N)C(=O)c1cn(-c2ccc(F)cc2)nn1.Cl` [Compound 26n], for which the melting point was > 183 °C (dec.). Besides, the “Inhibitory Activity [%I ± SEM] c = 1 µM” value in series [1] stood at 41.77 ± 3.01 %I. As for `C[C@H](N)C(=O)c1cn(-c2ccc(C(F)(F)F)cc2)nn1` [Compound 26o], in series [1], the “Inhibitory Activity [%I ± SEM] c = 1 µM” value amounted to 9.70 ± 1.67 %I.

Regarding `C[C@H](N)C(=O)c1cn(-c2cccc([N+](=O)[O-])c2)nn1.Cl` [Compound 26p], the melting point is > 183 °C (dec.). The “Inhibitory Activity [%I ± SEM] c = 1 µM” value in series [1] is given as 41.43 ± 2.67 %I. Consider `C[C@H](N)C(=O)c1cn(-c2ccc([N+](=O)[O-])cc2)nn1.Cl` [Compound 26q], for which the melting point was > 191 °C (dec.). Also, in series [1], the “Inhibitory Activity [%I ± SEM] c = 1 µM” value was 41.73 ± 2.66 %I.

Take `C[C@H](N)C(=O)c1cn(-c2ccc(Cl)cc2)nn1.Cl` [Compound 26r]: the melting point was > 177 °C (dec.). Also, the “Inhibitory Activity [%I ± SEM] c = 1 µM” value in series [1] is 23.86 ± 2.95 %I. Regarding `C[C@H](N)C(=O)c1cn(-c2cccc(Cl)c2)nn1` [Compound 26s], the melting point is > 171 °C (dec.). Also, in series [1], the “Inhibitory Activity [%I ± SEM] c = 1 µM” value came to 20.63 ± 3.78 %I.

Turning to `C[C@H](N)C(=O)c1cn(-c2ccc(F)c(Cl)c2)nn1` [Compound 26v], the “Inhibitory Activity [%I ± SEM] c = 1 µM” value in series [1] is reported as 23.62 ± 4.30 %I. In the case of `C[C@H](N)C(=O)c1ncc(-c2ccc(F)cc2)s1` [Compound 49a, 2-alaninoyl-5-(4-fluorophenyl)thiazole], the IC50 in series [1] (setting [2]) came to 97 ± 14 nM. In series [1], the “Inhibitory Activity [%I ± SEM] c = 1 µM” value stood at 61.54 ± 7.16 %I.
